Measured values reported in patent publication US8043823B2, “Methods of identifying agonists and antagonists of hTASR bitter taste receptors” (Deutsches Institut fuer Ernaehrungsforschung, priority 2007, dated 2011).

Key:
Type in all cases: cell-based
TAS2R47 = target: T1, TAS2R47 (Homo sapiens, UniProt P59541); test: FLIPR calcium imaging of HEK-293T Gα16gust44 cells transiently expressing TAS2R47
T1 construct: expressed in transfected cells; host or cells: HEK-293T cells stably expressing Gα16gust44
T1 sequence (P59541 1-319): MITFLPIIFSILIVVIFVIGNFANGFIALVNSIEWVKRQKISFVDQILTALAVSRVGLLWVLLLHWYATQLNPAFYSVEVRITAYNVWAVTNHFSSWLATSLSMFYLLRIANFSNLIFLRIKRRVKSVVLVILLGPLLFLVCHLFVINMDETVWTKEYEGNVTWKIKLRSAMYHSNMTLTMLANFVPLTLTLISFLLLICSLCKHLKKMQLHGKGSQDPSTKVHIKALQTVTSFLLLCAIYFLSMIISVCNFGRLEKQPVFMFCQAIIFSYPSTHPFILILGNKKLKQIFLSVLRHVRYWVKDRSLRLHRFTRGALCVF
Source text: (§1) Functional expression. Human TAS2R cDNA constructs were used that encoded a plasma membrane-targeting sequence of the rat somatostatin type 3 receptor at the N-terminus of the recombinant polypeptide and a herpes simplex virus glycoprotein D (HSV) epitope at its C-terminus (Bufe et al., 2002). The constructs were transiently transfected into HEK-293T cells that stably express the chimeric G-protein subunit Gα16gust44 using Lipofectamine 2000 (Invitrogen, San Diego, Calif.) in 96-well microtiter plates. Calcium imaging experiments using an automated fluorometric imaging plate reader (FLIPR) (Molecular Devices, Munich, Germany) have been performed 24-32 h later essentially as described previously (Bufe et al., 2002). Tastants (Sigma-Aldrich, Taufkirchen, Germany) were dissolved and administered in the following (in mM): 130 NaCl, 5 KCl, 10 HEPES, 2 CaCl2, and 10 mM glucose, pH7.4. Data were collected from 1-2 independent experiments performed at least in triplicate and processed with SigmaPlot (SPSS, Chicago, Ill.). For dose-response curve calculation, the peak fluorescence responses after compound addition were corrected for and normalized to background fluorescence (ΔF/F=(F−F0)/F0), and baseline noise was subtracted. […]

TAS2R50 = target: T2, TAS2R50 (Homo sapiens, UniProt P59544, C203Y); test: FLIPR calcium imaging of HEK-293T Gα16gust44 cells transiently expressing TAS2R50
T2 construct: expressed in transfected cells; host or cells: HEK-293T cells stably expressing Gα16gust44
T2 sequence (P59544 1-299 C203Y): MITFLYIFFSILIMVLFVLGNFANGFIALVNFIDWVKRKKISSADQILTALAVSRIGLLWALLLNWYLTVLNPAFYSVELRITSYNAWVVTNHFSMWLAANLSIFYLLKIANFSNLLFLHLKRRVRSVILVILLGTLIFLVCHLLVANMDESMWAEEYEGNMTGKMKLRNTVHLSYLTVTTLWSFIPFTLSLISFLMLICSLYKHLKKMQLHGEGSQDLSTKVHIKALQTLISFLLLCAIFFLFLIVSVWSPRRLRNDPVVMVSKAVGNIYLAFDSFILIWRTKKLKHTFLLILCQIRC
Source text: as §1

TAS2R46 = target: T3, TAS2R46 (Homo sapiens, UniProt P59540); test: FLIPR calcium imaging of HEK-293T Gα16gust44 cells transiently expressing TAS2R46; conditions: intracellular calcium response
T3 construct: expressed in transfected cells; host or cells: HEK-293T cells stably expressing Gα16gust44
T3 sequence (P59540 with tags, fused parts or gaps): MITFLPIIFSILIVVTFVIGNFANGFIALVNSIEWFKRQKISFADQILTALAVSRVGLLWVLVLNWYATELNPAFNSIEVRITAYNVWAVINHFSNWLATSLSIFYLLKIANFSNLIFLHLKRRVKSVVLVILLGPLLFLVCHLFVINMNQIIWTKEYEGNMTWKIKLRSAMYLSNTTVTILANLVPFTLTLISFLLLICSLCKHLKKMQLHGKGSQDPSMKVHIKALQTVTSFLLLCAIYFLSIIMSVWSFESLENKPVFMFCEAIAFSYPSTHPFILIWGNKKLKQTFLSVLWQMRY
Source text: as §1

| molar range at which TAS2R47 responded (TAS2R47; Table 1, assay similar to Example 1) | EC50 (TAS2R50; dose-response curve on TAS2R50, FIG. 2, one experiment in triplicate) | response of TAS2R50 in FLIPR calcium imaging (TAS2R50; result in words) | concentration to which TAS2R46-expressing cells already responded (TAS2R46) | concentration at which TAS2R47-expressing HEK293 cells responded (TAS2R47; intracellular calcium response, 30 μM or higher) | Compound |
| --- | --- | --- | --- | --- | --- |
| 0.3 mM | – | – | – | – | CC12CCC(CC1=O)C2(C)C (centres unmarked) [Camphor, camphor] |
| – | 5.6 µM | low micromolar range | 3 µM | ≥ 30 µM | C=C1CC[C@@H]2[C@](C)(CO)[C@H](O)CC[C@@]2(C)[C@@H]1C/C=C1/C(=O)OC[C@H]1O [andrographolide] |
